Key:
Format in all cases: cell-based
H1N1 influenza virus = test system: H1N1 influenza virus
[1] = test system: herpes simplex virus type 1 (strain L-2)
[2] = test system: vesicular stomatitis virus (reference strain)

KKRKRKRKR [derivative 54]
0%: % cytoprotective antiviral activity, Inf (H1N1 influenza virus) | % cytoprotective antiviral activity, Herp [1] | % cytoprotective antiviral activity, Vesic [2]

Source: patent US11339502B2, “Combinatorial derivatives of oligopeptides having antiviral properties” (priority 2017, dated 2022)
